Patent publication US9169260B2 (MERCK SHARP & DOHME CORP., priority 2011, dated 2015)
Like-named read-outs stand apart in the source and are kept apart here.

Target: GST tagged IRAK-4 (Homo sapiens (Human), UniProt Q9NWZ3)
Assay: IRAK-4 Kinase Assay (IMAP fluorescence polarization)
Format: biochemical
Method in brief: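 Activity was read by IMAP fluorescence polarization, where phosphopeptide binding to M(III) nanoparticles raises FP. The 30-minute, 25° C reaction used 100 μM ATP, 100 nM RP7030 substrate and 0.5 nM GST-IRAK-4 in pH 7.2 Tris buffer with MgCl2, DTT and Tween 20.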

[1] = 100 μM ATP, 30 minutes at 25° C., μM
[2] = 100 μM ATP, 30 minutes at 25° C.

Chain of GST tagged IRAK-4 (Q9NWZ3 whole entry): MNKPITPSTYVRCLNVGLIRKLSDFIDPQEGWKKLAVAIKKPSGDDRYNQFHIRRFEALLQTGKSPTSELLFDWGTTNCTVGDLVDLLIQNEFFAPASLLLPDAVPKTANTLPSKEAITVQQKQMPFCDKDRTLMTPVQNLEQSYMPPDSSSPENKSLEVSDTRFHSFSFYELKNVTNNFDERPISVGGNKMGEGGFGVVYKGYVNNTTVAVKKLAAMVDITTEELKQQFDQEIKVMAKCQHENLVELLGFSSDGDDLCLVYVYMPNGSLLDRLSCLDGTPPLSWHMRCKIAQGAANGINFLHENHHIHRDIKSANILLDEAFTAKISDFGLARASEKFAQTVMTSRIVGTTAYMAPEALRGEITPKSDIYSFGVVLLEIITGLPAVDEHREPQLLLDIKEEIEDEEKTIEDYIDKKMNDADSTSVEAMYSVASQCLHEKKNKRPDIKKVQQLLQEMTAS

Row | Compound | IC50 [1] | IC50 [2] | also measured
1 | CNS(=O)(=O)c1ccc(-c2cc(NC(=O)c3cnn4cccnc34)n(-c3ccc(C4CC4)cc3F)n2)cc1 [Example 101, N-(1-(4-cyclopropyl-2-fluorophenyl)-3-(4-(N-methylsulfamoyl)phenyl)-1H-pyrazol-5-yl)pyrazolo[1,5-a]pyrimidine-3-carboxamide] | – | < 0.1 µM | –
2 | CN1CCC(c2cc(NC(=O)c3cnn4cccnc34)n(-c3ccc(C4CC4)cn3)n2)CC1 [Example 147, N-(1-(5-cyclopropylpyridin-2-yl)-3-(1-methylpiperidin-4-yl)-1H-pyrazol-5-yl)pyrazolo[1,5-a]pyrimidine-3-carboxamide] | – | < 0.1 µM | –
3 | Cc1ccc(-n2nc(C3CN(Cc4cocn4)C3)cc2NC(=O)c2cnn3cccnc23)cc1 [Example 318, N-{1-(4-methylphenyl)-3-[1-(1,3-oxazol-4-ylmethyl)azetidin-3-yl]-1H-pyrazol-5-yl}pyrazolo[1,5-a]pyrimidine-3-carboxamide] | < 1 µM | – | –
4 | Cc1ccc(-n2nc(C3CCN(CC(N)=O)CC3)cc2NC(=O)c2cnn3cc(Br)cnc23)cc1 [Example 115, N-(3-(1-(2-amino-2-oxoethyl)piperidin-4-yl)-1-(p-tolyl)-1H-pyrazol-5-yl)-6-bromopyrazolo[1,5-a]pyrimidine-3-carboxamide] | – | < 0.1 µM | –
5 | Cc1ccc(-n2nc(-c3ccc(NS(C)(=O)=O)cc3)cc2NC(=O)c2cnn3cccnc23)cc1 [Example 103, N-(3-(4-(methylsulfonamido)phenyl)-1-(p-tolyl)-1H-pyrazol-5-yl)pyrazolo[1,5-a]pyrimidine-3-carboxamide] | – | < 0.1 µM | –
6 | Cc1ccc(-n2nc(C3CCN(CC4CC4)CC3)cc2NC(=O)c2cnn3cccnc23)nc1 [Example 281, N-{3-[1-(cyclopropylmethyl)piperidin-4-yl]-1-(5-methylpyridin-2-yl)-1H-pyrazol-5-yl}pyrazolo[1,5-a]pyrimidine-3-carboxamide] | – | < 0.1 µM | –
7 | Cc1ccc(-n2nc(-c3ccc(S(C)(=O)=O)cc3)cc2NC(=O)c2cnn3cccnc23)nc1 [Example 179, N-(1-(5-methylpyridin-2-yl)-3-(4-(methylsulfonyl)phenyl)-1H-pyrazol-5-yl)pyrazolo[1,5-a]pyrimidine-3-carboxamide] | – | < 0.1 µM | –
8 | CC(C)N1CCC(c2cc(NC(=O)c3cnn4cccnc34)n(-c3ccc(C4CC4)cc3F)n2)CC1 [Example 74, N-(1-(4-cyclopropyl-2-fluorophenyl)-3-(1-isopropylpiperidin-4-yl)-1H-pyrazol-5-yl)pyrazolo[1,5-a]pyrimidine-3-carboxamide] | – | < 0.1 µM | –
9 | Cc1ccc(-n2nc(C3=CCN(S(C)(=O)=O)CC3)cc2NC(=O)c2cnn3cccnc23)cc1 [Example 139, N-(3-(1-(methylsulfonyl)-1,2,3,6-tetrahydropyridin-4-yl)-1-(p-tolyl)-1H-pyrazol-5-yl)pyrazolo[1,5-a]pyrimidine-3-carboxamide] | – | < 0.1 µM | –
10 | Cc1ccc(-n2nc(-c3ccc(S(=O)(=O)C4CC4)cc3)cc2NC(=O)c2cnn3cccnc23)cc1 [Example 336, N-{3-[4-(cyclopropylsulfonyl)phenyl]-1-(4-methylphenyl)-1H-pyrazol-5-yl}pyrazolo[1,5-a]pyrimidine-3-carboxamide] | – | < 0.1 µM | –
11 | CS(=O)(=O)N1CCC(c2cc(NC(=O)c3cnn4cccnc34)n(-c3ccc(C4CC4)cn3)n2)CC1 [Example 149, N-(1-(5-cyclopropylpyridin-2-yl)-3-(1-(methylsulfonyl)piperidin-4-yl)-1H-pyrazol-5-yl)pyrazolo[1,5-a]pyrimidine-3-carboxamide] | – | < 0.1 µM | –
12 | COc1ccc(-n2nc(-c3ccncc3)cc2NC(=O)c2cnn3cccnc23)cc1 [Example 127, N-(1-(4-methoxyphenyl)-3-(pyridin-4-yl)-1H-pyrazol-5-yl)pyrazolo[1,5-a]pyrimidine-3-carboxamide] | < 1 µM | – | –
13 | [2H]C([2H])([2H])c1ccc(-n2nc(C3CCN(S(C)(=O)=O)CC3)cc2NC(=O)c2cnn3cccnc23)nc1 [Example 155, N-(1-(5-trideuteromethylpyridin-2-yl)-3-(1-(methylsulfonyl)piperidin-4-yl)-1H-pyrazol-5-yl)pyrazolo[1,5-a]pyrimidine-3-carboxamide] | – | < 0.1 µM | –
14 | N-(3-(4-(aminomethyl)cyclohexyl)-1-(p-tolyl)-1H-pyrazol-5-yl)pyrazolo[1,5-a]pyrimidine-3-carboxamide [Example 184] | – | – | IC50: < 0.1 µM
15 | Cc1ccc(-n2nc(C3CCN(C(C)C)CC3)cc2NC(=O)c2cnn3cccnc23)c(Cl)c1 [Example 66, N-(1-(2-chloro-4-methylphenyl)-3-(1-isopropylpiperidin-4-yl)-1H-pyrazol-5-yl)pyrazolo[1,5-a]pyrimidine-3-carboxamide] | < 1 µM | – | –
16 | Cc1ccc(-n2nc(C3=CCNCC3)cc2NC(=O)c2cnn3cccnc23)cc1 [Example 138, N-(3-(1,2,3,6-tetrahydropyridin-4-yl)-1-(p-tolyl)-1H-pyrazol-5-yl)pyrazolo[1,5-a]pyrimidine-3-carboxamide] | – | < 0.1 µM | –
17 | Cc1ccc(-n2nc(C3CCN(C4CN(C(=O)NC(C)(C)C)C4)CC3)cc2NC(=O)c2cnn3cccnc23)cc1 [Example 236, N-[3-{1-[1-(tert-butylcarbamoyl)azetidin-3-yl]piperidin-4-yl]-1-(4-methylphenyl)-1H-pyrazol-5-yl}pyrazolo[1,5-a]pyrimidine-3-carboxamide] | < 1 µM | – | –

Continued, in another order:

Row | IC50 [1] | IC50 [2] | Compound | also measured
18 | < 1 µM | – | CCOC(=O)N1CC(N2CCC(c3cc(NC(=O)c4cnn5cccnc45)n(-c4ccc(C)cc4)n3)CC2)C1 [Example 239, ethyl 3-(4-{1-(4-methylphenyl)-5-[(pyrazolo[1,5-a]pyrimidin-3-ylcarbonyl)amino]-1H-pyrazol-3-yl}piperidin-1-yl)azetidine-1-carboxylate] | –
19 | – | < 0.1 µM | Cc1ccc(-n2nc(C3CCN(C(C)C)CC3)cc2NC(=O)c2cnn3cc(Br)cnc23)cc1 [Example 108, 6-bromo-N-(3-(1-isopropylpiperidin-4-yl)-1-(p-tolyl)-1H-pyrazol-5-yl)pyrazolo[1,5-a]pyrimidine-3-carboxamide] | –
20 | – | < 0.1 µM | Cc1ccc(-n2nc(C3CCN(C4CC5(CCCC5)C4)CC3)cc2NC(=O)c2cnn3cccnc23)cc1 [Example 257, N-[1-(4-methylphenyl)-3-(1-spiro[3.4]oct-2-ylpiperidin-4-yl)-1H-pyrazol-5-yl]pyrazolo[1,5-a]pyrimidine-3-carboxamide] | –
21 | – | < 0.1 µM | Cc1ccc(-n2nc(C3CCN(C4CCC(N(C)S(C)(=O)=O)CC4)CC3)cc2NC(=O)c2cnn3cccnc23)cc1 (stereo not shown) [Example 251, N-[3-(1-{4-[methyl(methylsulfonyl)amino]cyclohexyl}piperidin-4-yl)-1-(4-methylphenyl)-1H-pyrazol-5-yl]pyrazolo[1,5-a]pyrimidine-3-carboxamide] | –
22 | < 1 µM | – | O=C(Nc1cc(C2CCN(S(=O)(=O)C3CC3)CC2)nn1-c1ccc(C2CC2)cn1)c1cnn2cccnc12 [Example 150, N-(1-(5-cyclopropylpyridin-2-yl)-3-(1-(cyclopropylsulfonyl)piperidin-4-yl)-1H-pyrazol-5-yl)pyrazolo[1,5-a]pyrimidine-3-carboxamide] | –
23 | – | < 0.1 µM | Cc1ccc(-n2nc(C3CCN(C4CCC4)CC3)cc2NC(=O)c2cnn3cccnc23)nc1 [Example 274, N-[3-(1-cyclobutylpiperidin-4-yl)-1-(5-methylpyridin-2-yl)-1H-pyrazol-5-yl]pyrazolo[1,5-a]pyrimidine-3-carboxamide] | –
24 | – | < 0.1 µM | Cc1ccc(-n2nc(C3CCN(C4CCOCC4)CC3)cc2NC(=O)c2cnn3cc(Br)cnc23)cc1 [Example 110, 6-bromo-N-(3-(1-(tetrahydro-2H-pyran-4-yl)piperidin-4-yl)-1-(p-tolyl)-1H-pyrazol-5-yl)pyrazolo[1,5-a]pyrimidine-3-carboxamide] | –
25 | – | < 0.1 µM | Cc1ccc(-n2nc(C3CCN(C4CCN(C5CC5)CC4)CC3)cc2NC(=O)c2cnn3cccnc23)nc1 [Example 267, N-[3-(1′-cyclopropyl-1,4′-bipiperidin-4-yl)-1-(5-methylpyridin-2-yl)-1H-pyrazol-5-yl]pyrazolo[1,5-a]pyrimidine-3-carboxamide] | –
26 | – | < 0.1 µM | Cc1ccc(-n2nc(N3CCN(C4CCCCC4)CC3)cc2NC(=O)c2cnn3cccnc23)nc1 [Example 319, N-[3-(4-cyclohexylpiperazin-1-yl)-1-(5-methylpyridin-2-yl)-1H-pyrazol-5-yl]pyrazolo[1,5-a]pyrimidine-3-carboxamide] | –
27 | < 1 µM | – | CS(=O)(=O)N1CCC(c2cc(NC(=O)c3cnn4cccnc34)n(-c3ccc(Cl)cc3F)n2)CC1 [Example 29, N-(1-(4-chloro-2-fluorophenyl)-3-(1-(methylsulfonyl)piperidin-4-yl)-1H-pyrazol-5-yl)pyrazolo[1,5-a]pyrimidine-3-carboxamide] | –
28 | < 1 µM | – | Cc1ccc(-n2nc(C3CCN(S(=O)(=O)c4ccc(N5CCOCC5)nc4)CC3)cc2NC(=O)c2cnn3cccnc23)cc1 [Example 383, N-[1-(4-methylphenyl)-3-{1-[(6-morpholin-4-ylpyridin-3-yl)sulfonyl]piperidin-4-yl}-1H-pyrazol-5-yl]pyrazolo[1,5-a]pyrimidine-3-carboxamide] | –
29 | < 1 µM | – | O=C(Nc1cc(C2CCN(S(=O)(=O)C3CC3)CC2)nn1-c1ccc(C2CC2)cc1)c1cnn2cccnc12 [Example 54, N-(1-(4-cyclopropylphenyl)-3-(1-(cyclopropylsulfonyl)piperidin-4-yl)-1H-pyrazol-5-yl)pyrazolo[1,5-a]pyrimidine-3-carboxamide] | –
30 | < 1 µM | – | Cc1ccc(-n2nc(C3CN(Cc4cnccn4)C3)cc2NC(=O)c2cnn3cccnc23)cc1 [Example 304, N-{1-(4-methylphenyl)-3-[1-(pyrazin-2-ylmethyl)azetidin-3-yl]-1H-pyrazol-5-yl}pyrazolo[1,5-a]pyrimidine-3-carboxamide] | –
31 | – | < 0.1 µM | Cc1cnc(-n2nc(C3CCN(S(C)(=O)=O)CC3)cc2NC(=O)c2cnn3cccnc23)nc1 [Example 170, N-(1-(5-methylpyrimidin-2-yl)-3-(1-(methylsulfonyl)piperidin-4-yl)-1H-pyrazol-5-yl)pyrazolo[1,5-a]pyrimidine-3-carboxamide] | –
